Data from patent US9180111B2, “Reduction in complement activation and inflammation during tissue injury by carotenoids, carotenoid analogs, or derivatives thereof” (Cardax Pharma, Inc., priority 2005, dated 2015).

Tests used:
[1] = test system: cardiac-specific troponin I (cTnI); experiment: Measurement of cardiac-specific troponin I by ELISA; type: in vivo, rabbit; settings: rabbits, 50 mg/kg i.v. 4 days; not statistically significant
Protocol: Whole blood was drawn at baseline (pre-ischemia) and at the end of reperfusion for the determination of cardiac-specific troponin I (cTnI). Serum levels of the proteins were measured using a commercially available ELISA kit. Collected plasma samples were prepared from whole blood and were snap frozen in liquid nitrogen. The samples were stored at −80° C. until the day of the assay when they were thawed over ice and diluted appropriately with the sample diluent supplied with each assay kit. Determination of the target protein using a protein standard curve was performed according to standard procedure in the art.

superoxide anion = experiment: Direct superoxide anion scavenging by EPR spectroscopy (DEPMPO spin-trap) in PMA-stimulated isolated human neutrophils; type: cell-based; settings: aqueous phase
Protocol: Human polymorphonuclear leukocytes (PMNs) were isolated from freshly sampled venous blood of a single volunteer by Percoll density gradient centrifugation as described previously. Briefly, each 10 mL of whole blood was mixed with 0.8 mL of 0.1 M EDTA and 25 mL of saline. The diluted blood was then layered over 9 mL of Percoll at a specific density of 1.080 g/mL. After centrifugation at 400×g for 20 min at 20° C., the plasma, mononuclear cell, and Percoll layers were removed. Erythrocytes were subsequently lysed by addition of 18 mL of ice-cold water for 30 s, followed by 2 mL of 10×PIPES buffer (25 mM PIPES, 110 mM NaCl, and 5 mM KCl, titrated to pH 7.4 with NaOH). Cells were then pelleted at 4° C., the supernatant was decanted, and the procedure was repeated. […] Afterward, PMNs were counted by light microscopy on a hemocytometer. […] The microwave frequency was measured with a Model 575 microwave counter (EIP Microwave, Inc., San Jose, Calif.). […]
Instrument settings used in the spin-trapping experiments were as follows: modulation amplitude, 0.32 G; time constant, 0.16 s; scan time, 60 s; modulation frequency, 100 kHz; microwave power, 20 milliwatts; and microwave frequency, 9.76 GHz. The samples were placed in a quartz EPR flat cell, and spectra were recorded. The component signals in the spectra were identified and quantified as reported previously.

[2] = oral administration to black mice (Showalter et al. 2004); cited from earlier work
MAC (C5b-9) = experiment: MAC deposition in heart tissue by indirect immunofluorescence; type: in vivo, rabbit; settings: rabbits, 50 mg/kg i.v. 4 days, 30 min ischemia, 3 h reperfusion; p<0.05
Protocol: (§1) The immunofluorescent method for detection of CRP was performed essentially as described previously (Lauver et al., 2005). Briefly, tissue samples used for infarct size determination were fixed in 10% buffered formalin immediately after the completion of the experimental protocol. The tissue samples were embedded in paraffin blocks and cut into sections of 2 μm in thickness, which were then mounted on glass slides. Two consecutive sections (mirror images) from a single heart slice were mounted on each slide. The slides were deparaffinized and subjected to antigen unmasking using a commercially available kit for this purpose (Vector Laboratories, Burlingame, Calif.). After blocking for 30 minutes, primary antibodies were incubated at room temperature in a humidity chamber for 45 minutes. One section per slide was incubated with a chicken anti-rabbit CRP antibody (5 μg/ml final concentration, Strategic BioSolutions, Newark, Del.) and the other section was incubated with a chicken anti-rabbit MAC antibody (1:2500 final dilution, developed in conjunction with Lampire Biological Laboratories, Pipersville, Pa.). […] Images were analyzed using IP Lab (Scanalytics, Inc., Fairfax, Va.) software to determine mean fluorescence intensity per heart section. […]

[3] = Plasma and tissue concentrations of non-esterified, free astaxanthin at the end of reperfusion; type: in vivo, rabbit; settings: rabbits, DDA 50 mg/kg i.v. for 4 days, end of 3 h reperfusion
Description: To determine the plasma and tissue concentrations of non-esterified, free astaxanthin in blood and organs, samples were taken at the end of reperfusion in selected rabbits (n=5) treated with DDA, and determined by methods previously described (Osterlie et al., 2000). Non-esterified, free astaxanthin, in vivo, is generated after cleavage of the water-dispersible disuccinate diester to monosuccinate, and subsequently to non-esterified, free astaxanthin by the intrinsic esterase activity of serum albumin (Curry et al., 1999), or by non-specific esterase activity in plasma and solid organs (Jensen et al., 1999). Non-esterified, free astaxanthin then accumulates in myocardium and other tissues after plasma clearance in a dose-dependent manner after both oral (Showalter et al., 2004) and intravenous administration (Gross and Lockwood 2004a,b).

CRP = CRP deposition in heart tissue by indirect immunofluorescence; type: in vivo, rabbit; settings: rabbits, 50 mg/kg i.v. 4 days, 30 min ischemia, 3 h reperfusion; p<0.05
Protocol: as §1

CC1=C(/C=C/C(C)=C/C=C/C(C)=C/C=C/C=C(C)/C=C/C=C(C)/C=C/C2=C(C)C(=O)C(OC(=O)CCC(=O)O)CC2(C)C)C(C)(C)CC(OC(=O)CCC(=O)O)C1=O (stereo not shown) [DDA, disodium disuccinate astaxanthin]
mean serum cTnI concentration at the end of reperfusion versus vehicle controls [1]: lower mean cTnI concentration
direct aqueous superoxide anion scavenging (superoxide anion): potent direct scavengers of superoxide anion
plasma clearance of free astaxanthin and tissue/serum ratios [2]: Rapid plasma clearance of free astaxanthin, and excellent myocardium- and hepatic/serum ratios
MAC deposition in infarct region (fluorescence intensity) versus saline (MAC (C5b-9)): significantly reduced fluorescence
mean myocardial tissue concentration of non-esterified astaxanthin [3]: > 10 µM
mean plasma concentration of non-esterified, free astaxanthin [3]: 222 ± 51 nM
CRP deposition in infarct region (fluorescence intensity) versus saline (CRP): significantly reduced fluorescence
